The source of these data is patent US20200325543A1, “DIAGNOSTIC METHOD” (TOLREMO THERAPEUTICS AG, priority 2017, published 2020).

This assay has as its system SOX2. The assay is described as follows: Screen of a library of FDA-approved drugs for SOX2 antibody staining in A375 cells treated with PLX4720 and AZD6244. To be noted: for cor. loess: normalized and geometry-corrected (loess) signal; for norm: signal after plate normalization; for z: Z-test against negative controls (DMSO), single dose 5 uM.
Where [1] appears, read: A375 cells, 5 uM test drug with 1 uM PLX4720 and 0.5 uM AZD6244, 24 h.
The mark [2] stands for this setting: A375 cells, 5 uM test drug with 1 uM PLX4720 and 0.5 uM AZD6244, 24 h, raw signal (ratio of FL2 SOX2 antibody and FL3 nuclear staining), screen run in duplicate.

“And” between values parts separate entries of the source, which are not always exact repeats. Equal entries are not always repeated. Structures can show the parent of a compound that is named as a salt. Where two headings read alike, the source gives them in different places.

`CCN(CC)C(=S)SSC(=S)N(CC)CC` displayed a z of 4.87. Besides, under setting [1], the cor. loess is reported as 0.5909 and the norm is recorded as 0.642. Besides, under setting [2], the raw stood at 0.973.

`CC(=O)Nc1c(I)cc(I)c(C(=O)O)c1I` [ACETRIAZOIC ACID] yielded a z of 4.812. Under setting [1], this compound registered a cor. loess of 0.3537 and a norm of 0.3797. Also, under setting [2], the raw turned out to be 0.9817.

In the case of `CC(=O)N[C@@H](CC(C)C)C(=O)O` [ACETYL-L-LEUCINE], the z was found to be 6.41. Under setting [1], this compound displayed a cor. loess of 0.5782 and a norm of 0.5922. Moreover, under setting [2], the raw was found to be 0.9737.

For `CCCCCCc1ccc(O)cc1O.Nc1c2ccccc2nc2ccccc12` [ACRISORCIN], the z was 4.872 and 7.943. Further, the raw under setting [2] is 0.9675 and 0.9751. Moreover, under setting [1], the norm was 0.7754 and 0.5959.

`CCCSc1ccc2nc(NC(=O)OC)[nH]c2c1` [ALBENDAZOLE]: the raw was 0.9811 and the z is 5.411. Under setting [1], the cor. loess is reported as 0.3977 and the norm was 0.3992.

With `CC(=O)OCC(=O)[C@@]12OC3(CCCC3)O[C@@H]1C[C@H]1[C@@H]3CCC4=CC(=O)C=C[C@]4(C)[C@@]3(F)[C@@H](O)C[C@@]12C` [AMCINONIDE], the z stood at 6.68. Under setting [1], this compound came in with a cor. loess of 0.491 and a norm of 0.5647. Further, the raw under setting [2] is on record as 0.9761.

Regarding `CCN(CC)Cc1cc(Nc2ccnc3cc(Cl)ccc23)ccc1O` [AMODIAQUINE DIHYDROCHLORIDE], the z came out at 7.671. Under setting [1], this compound gave a cor. loess of 0.9308 and a norm of 1.053. The raw under setting [2] was 0.9611.

`C[C@H]1[C@@H](O)O[C@@H]2O[C@@]3(C)CC[C@H]4[C@H](C)CC[C@@H]1[C@@]24OO3` [ARTENIMOL] came in with a z of 5.354. Further, under setting [1], the cor. loess turned out to be 0.4829 and the norm turned out to be 0.4488. Besides, the raw under setting [2] is 0.978.

`C[C@H]1[C@H](OC(=O)CCC(=O)O)O[C@@H]2O[C@@]3(C)CC[C@H]4[C@H](C)CC[C@@H]1[C@@]24OO3` [ARTESUNATE] came in with a z of 3.471. Under setting [1], this compound had a cor. loess of 0.3246 and a norm of 0.3139. Further, the raw under setting [2] was 0.9835.

For `Nc1ncn([C@@H]2O[C@H](CO)[C@@H](O)[C@H]2O)c(=O)n1` [AZACITIDINE], the z was determined as 8.534. Under setting [1], this compound showed a cor. loess of 0.9945 and a norm of 0.9714. The raw under setting [2] turned out to be 0.9651.

For `S=C(NCc1ccc2c(c1)OCO2)N1CCN(c2ncnc3c2oc2ccccc23)CC1` [Amuvatinib (MP-470), Amuvatinib], the z is reported as 4.05. Under setting [1], the cor. loess amounted to 0.5191 and the norm stood at 0.6031. Moreover, the raw under setting [2] stood at 0.9748.

Regarding `CC(C)(C)CC(C)(C)c1ccc(OCCOCC[N+](C)(C)Cc2ccccc2)cc1` [BENZETHONIUM CHLORIDE], the z stood at 7.654. Under setting [1], the cor. loess was determined as 0.9288 and the norm is on record as 0.9712. Also, the raw under setting [2] was determined as 0.9635.

On to `O=C(Oc1cccc2cccnc12)c1ccccc1` [BENZOXIQUINE], for which the z stood at 3.458. Moreover, under setting [1], the cor. loess is 0.5846 and the norm turned out to be 0.6197. The raw under setting [2] is recorded as 0.9731.

As to `CCC(=O)OCC(=O)[C@@]1(OC(=O)CC)[C@@H](C)C[C@H]2[C@@H]3CCC4=CC(=O)C=C[C@]4(C)[C@@]3(F)[C@@H](O)C[C@@]21C` [BETAMETHASONE 17,21-DIPROPIONATE], the z amounted to 5.927. Besides, under setting [1], the cor. loess worked out at 0.4356 and the norm is reported as 0.4336. In addition, under setting [2], the raw is on record as 0.9801.

With `O=[N+]([O-])C(Br)(CO)CO` [BRONOPOL], the z worked out at 4.996. In addition, under setting [1], the cor. loess worked out at 0.4507 and the norm came out at 0.4505. For the same compound, under setting [2], the raw is listed as 0.9779.

Compound `CCCCN1CCCCC1C(=O)Nc1c(C)cccc1C` (stereo not shown) [BUPIVACAINE HYDROCHLORIDE] returned a z of 3.991. In addition, under setting [1], the cor. loess came to 0.2934 and the norm stood at 0.3196. Also, the raw under setting [2] is 0.9835.

For the compound `COC(=O)[C@]12CCC(C)(C)C[C@H]1[C@H]1C(=O)C=C3[C@@]4(C)C=C(C#N)C(=O)C(C)(C)[C@@H]4CC[C@@]3(C)[C@]1(C)CC2` [Bardoxolone Methyl], the z was determined as 9.753. Under setting [1], the cor. loess is given as 1.25 and the norm is 1.346. In addition, the raw under setting [2] is 0.9513.

Consider `CCCCCCCCCCCCCCCC[N+](C)(C)C.[Br-]` [CETRIMONIUM BROMIDE], for which the z stood at 19.51. Under setting [1], this compound yielded a cor. loess of 5.014 and a norm of 4.765. The raw under setting [2] was 0.8841.

Regarding `O=C1c2ccccc2C(=O)C1c1ccc(Cl)cc1` [CHLORINDIONE], the z is 3.839. Under setting [1], this compound returned a cor. loess of 0.3463 and a norm of 0.2966. In addition, under setting [2], the raw is listed as 0.9825.

With `CCC(=O)O[C@]1(C(=O)CCl)[C@@H](C)C[C@H]2[C@@H]3CCC4=CC(=O)C=C[C@]4(C)[C@@]3(F)[C@@H](O)C[C@@]21C` [CLOBETASOL PROPIONATE], the z is on record as 5.471. For the same compound, under setting [1], the cor. loess turned out to be 0.4021 and the norm is reported as 0.4554. For the same compound, under setting [2], the raw was 0.9794.

With `COc1cc2c(c(OC)c1OC)-c1ccc(OC)c(=O)cc1[C@@H](NC(C)=O)CC2` [COLCHICINE], the z is 5.86. Further, under setting [1], the cor. loess is 0.7111 and the norm was 0.7731. The raw under setting [2] is 0.9693.

As for `C[C@@H]1C[C@@H]([C@H](O)CC2CC(=O)NC(=O)C2)C(=O)[C@@H](C)C1` [CYCLOHEXIMIDE], the z is listed as 5.982. Under setting [1], this compound showed a cor. loess of 0.6971 and a norm of 0.6756. Further, the raw under setting [2] was determined as 0.9738.

For the compound `CCS(=O)(=O)N1CCN(c2ccc(Nc3ncc(C(N)=O)c(NC4CC4)n3)cc2)CC1` [Cerdulatinib (PRT062070, PRT2070), Cerdulatinib], the z came to 3.646. Under setting [1], this compound registered a cor. loess of 0.4672 and a norm of 0.6248. Further, the raw under setting [2] came to 0.9741.

`Nc1cc(F)ccc1NC(=O)c1ccc(CNC(=O)/C=C/c2cccnc2)cc1` [Chidamide] had a z of 7.547. Under setting [1], this compound displayed a cor. loess of 1.067 and a norm of 1.02. The raw under setting [2] amounted to 0.9618.

For `CC(=O)OCC(=O)[C@@]1(O)[C@H](C)C[C@H]2[C@@H]3CCC4=CC(=O)C=C[C@]4(C)[C@@]3(F)[C@@H](O)C[C@@]21C` [DEXAMETHASONE ACETATE], the z worked out at 3.803. In addition, under setting [1], the cor. loess amounted to 0.4615 and the norm is reported as 0.5088. The raw under setting [2] stood at 0.9769.

As to `C[C@@H]1C[C@H]2[C@@H]3CCC4=CC(=O)C=C[C@]4(C)[C@@]3(F)[C@@H](O)C[C@]2(C)[C@@]1(O)C(=O)COP(=O)(O)O` [DEXAMETHASONE SODIUM PHOSPHATE], the z is listed as 4.367. Under setting [1], the cor. loess is reported as 0.5299 and the norm was found to be 0.5817. Also, the raw under setting [2] amounted to 0.9748.
